According to US6689773B2, “Uracil substituted phenyl sulfamoyl carboxamides” (BASF Aktiengesellschaft, priority 2000, dated 2004):

Key:
Type in all cases: in vivo
[1] = test system: GLXMA, Soybean, Glycine max, (L.) Merr.; experiment: Preemergence herbicidal evaluation (Example 148); details: rating scale 0-9, two to four weeks after treatment
How it was run: (§1)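 Seeds mixed with potting soil and planted in cups, then sprayed preemergence with aqueous acetone solution of test compound at about 0.125 to 0.250 kg per hectare. Kept under greenhouse conditions; visual rating versus untreated control 2–4 weeks after treatment, scoring stand, vigor, malformation, size and chlorosis. Repeat tests averaged.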

[2] = test system: ZEAMX, Field corn, Zea mays L.; experiment: Preemergence herbicidal evaluation (Example 148); details: rating scale 0-9, two to four weeks after treatment
How it was run: as §1

[3] = test system: ALOMY, Blackgrass, Alopecurus myosuroides; experiment: Preemergence herbicidal evaluation (Example 148); details: rating scale 0-9, two to four weeks after treatment
How it was run: as §1

[4] = test system: AMBEL, Ragweed, Common, Ambrosia artemiisifolia, L.; experiment: Preemergence herbicidal evaluation (Example 148); details: rating scale 0-9, two to four weeks after treatment
How it was run: as §1

[5] = test system: ABUTH, Velvetleaf, Abutilon theophrasti, Medic.; experiment: Preemergence herbicidal evaluation (Example 148); details: rating scale 0-9, two to four weeks after treatment
How it was run: as §1

[6] = test system: ECHCG, Barnyardgrass, Echinochloa crusgalli, (L.)Beau; experiment: Preemergence herbicidal evaluation (Example 148); details: rating scale 0-9, two to four weeks after treatment
How it was run: as §1

[7] = test system: CHEAL, Lambsquarters, Chenopodium album, L. Common; experiment: Preemergence herbicidal evaluation (Example 148); details: rating scale 0-9, two to four weeks after treatment
How it was run: as §1

[8] = test system: TRZAW, Winter wheat, Tritium Aestivum, L. (Winter); experiment: Preemergence herbicidal evaluation (Example 148); details: rating scale 0-9, two to four weeks after treatment
How it was run: as §1

[9] = test system: XANST, Cocklebur, Xanthium strumariam; experiment: Preemergence herbicidal evaluation (Example 148); details: rating scale 0-9, two to four weeks after treatment
How it was run: as §1

[10] = test system: IPOHE, Morningglory, Ivyleaf, Ipomoea hederacea, (L)Jacq.; experiment: Preemergence herbicidal evaluation (Example 148); details: rating scale 0-9, two to four weeks after treatment
How it was run: as §1

[11] = test system: SETVI, Green foxtail, Setaria viridis, (L.)Beau; experiment: Preemergence herbicidal evaluation (Example 148); details: rating scale 0-9, two to four weeks after treatment
How it was run: as §1

[12] = test system: DIGSA, Crabgrass, (Hairy) L, Digitaria sanguinalis, (L)Scop; experiment: Preemergence herbicidal evaluation (Example 148); details: rating scale 0-9, two to four weeks after treatment
How it was run: as §1

[13] = test system: GLXMA, Soybean, Glycine max, (L.) Merr.; experiment: Postemergence herbicidal evaluation (Example 147); details: rating scale 0-9, two to three weeks after treatment
How it was run: (§2)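 First, seedlings were raised for about two weeks. Next, they were sprayed at 40 psi with compound (about 0.016 to 0.032 kg/ha) in acetone/water 80/20 containing 1.0% methylated seed oil. Finally, after two to three greenhouse weeks, overall appearance versus control was rated 0-9, averaging repeat tests.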

[14] = test system: ZEAMX, Field corn, Zea mays L.; experiment: Postemergence herbicidal evaluation (Example 147); details: rating scale 0-9, two to three weeks after treatment
How it was run: as §2

[15] = test system: ALOMY, Blackgrass, Alopecurus myosuroides; experiment: Postemergence herbicidal evaluation (Example 147); details: rating scale 0-9, two to three weeks after treatment
How it was run: as §2

[16] = test system: AMBEL, Ragweed, Common, Ambrosia artemiisifolia, L.; experiment: Postemergence herbicidal evaluation (Example 147); details: rating scale 0-9, two to three weeks after treatment
How it was run: as §2

[17] = test system: ABUTH, Velvetleaf, Abutilon theophrasti, Medic.; experiment: Postemergence herbicidal evaluation (Example 147); details: rating scale 0-9, two to three weeks after treatment
How it was run: as §2

[18] = test system: ECHCG, Barnyardgrass, Echinochloa crusgalli, (L.)Beau; experiment: Postemergence herbicidal evaluation (Example 147); details: rating scale 0-9, two to three weeks after treatment
How it was run: as §2

[19] = test system: CHEAL, Lambsquarters, Chenopodium album, L. Common; experiment: Postemergence herbicidal evaluation (Example 147); details: rating scale 0-9, two to three weeks after treatment
How it was run: as §2

[20] = test system: TRZAW, Winter wheat, Tritium Aestivum, L. (Winter); experiment: Postemergence herbicidal evaluation (Example 147); details: rating scale 0-9, two to three weeks after treatment
How it was run: as §2

[21] = test system: XANST, Cocklebur, Xanthium strumariam; experiment: Postemergence herbicidal evaluation (Example 147); details: rating scale 0-9, two to three weeks after treatment
How it was run: as §2

[22] = test system: IPOHE, Morningglory, Ivyleaf, Ipomoea hederacea, (L)Jacq.; experiment: Postemergence herbicidal evaluation (Example 147); details: rating scale 0-9, two to three weeks after treatment
How it was run: as §2

[23] = test system: SETVI, Green foxtail, Setaria viridis, (L.)Beau; experiment: Postemergence herbicidal evaluation (Example 147); details: rating scale 0-9, two to three weeks after treatment
How it was run: as §2

[24] = test system: DIGSA, Crabgrass, (Hairy) L, Digitaria sanguinalis, (L)Scop; experiment: Postemergence herbicidal evaluation (Example 147); details: rating scale 0-9, two to three weeks after treatment
How it was run: as §2

CCNS(=O)(=O)NC(=O)c1cc(-n2c(=O)cc(C(F)(F)F)n(C)c2=O)c(F)cc1Cl [Example 80]
Preemergence herbicidal rating GLXMA ([1]; rate 0.125 kg/ha): 0.0 | Preemergence herbicidal rating GLXMA ([1]; rate 0.25 kg/ha): 0.0 | Preemergence herbicidal rating ZEAMX ([2]; rate 0.125 kg/ha): 0.0 | Preemergence herbicidal rating ZEAMX ([2]; rate 0.25 kg/ha): 0.0 | Preemergence herbicidal rating ALMOY ([3]; rate 0.125 kg/ha): 0.0 | Preemergence herbicidal rating ALMOY ([3]; rate 0.25 kg/ha): 0.0 | Preemergence herbicidal rating AMBEL ([4]; rate 0.125 kg/ha): 1.0 | Preemergence herbicidal rating AMBEL ([4]; rate 0.25 kg/ha): 3.0 | Preemergence herbicidal rating ABUTH ([5]; rate 0.125 kg/ha): 1.0 | Preemergence herbicidal rating ABUTH ([5]; rate 0.25 kg/ha): 5.0 | Preemergence herbicidal rating ECHCG ([6]; rate 0.125 kg/ha): 0.0 | Preemergence herbicidal rating ECHCG ([6]; rate 0.25 kg/ha): 3.0 | Preemergence herbicidal rating CHEAL ([7]; rate 0.125 kg/ha): 5.0 | Preemergence herbicidal rating CHEAL ([7]; rate 0.25 kg/ha): 8.0 | Preemergence herbicidal rating TRZAW ([8]; rate 0.125 kg/ha): 0.0 | Preemergence herbicidal rating TRZAW ([8]; rate 0.25 kg/ha): 0.0 | Preemergence herbicidal rating XANST ([9]; rate 0.125 kg/ha): 0.0 | Preemergence herbicidal rating XANST ([9]; rate 0.25 kg/ha): 1.0 | Preemergence herbicidal rating IPOHE ([10]; rate 0.125 kg/ha): 0.0 | Preemergence herbicidal rating IPOHE ([10]; rate 0.25 kg/ha): 0.0 | Preemergence herbicidal rating SETVI ([11]; rate 0.125 kg/ha): 0.0 | Preemergence herbicidal rating SETVI ([11]; rate 0.25 kg/ha): 0.0 | Preemergence herbicidal rating DIGSA ([12]; rate 0.125 kg/ha): 0.0 | Preemergence herbicidal rating DIGSA ([12]; rate 0.25 kg/ha): 1.0 | Postemergence herbicidal rating GLXMA ([13]; rate 0.016 kg/ha): 8.0 | Postemergence herbicidal rating GLXMA ([13]; rate 0.032 kg/ha): 8.0 | Postemergence herbicidal rating ZEAMX ([14]; rate 0.016 kg/ha): 1.5 | Postemergence herbicidal rating ZEAMX ([14]; rate 0.032 kg/ha): 4.0 | Postemergence herbicidal rating ALMOY ([15]; rate 0.016 kg/ha): 0.0 | Postemergence herbicidal rating ALMOY ([15]; rate 0.032 kg/ha): 1.0 | Postemergence herbicidal rating AMBEL ([16]; rate 0.016 kg/ha): 7.0 | Postemergence herbicidal rating AMBEL ([16]; rate 0.032 kg/ha): 8.0 | Postemergence herbicidal rating ABUTH ([17]; rate 0.016 kg/ha): 7.0 | Postemergence herbicidal rating ABUTH ([17]; rate 0.032 kg/ha): 9.0 | Postemergence herbicidal rating ECHCG ([18]; rate 0.016 kg/ha): 4.0 | Postemergence herbicidal rating ECHCG ([18]; rate 0.032 kg/ha): 6.0 | Postemergence herbicidal rating CHEAL ([19]; rate 0.016 kg/ha): 3.0 | Postemergence herbicidal rating CHEAL ([19]; rate 0.032 kg/ha): 4.0 | Postemergence herbicidal rating TRZAW ([20]; rate 0.016 kg/ha): 3.0 | Postemergence herbicidal rating TRZAW ([20]; rate 0.032 kg/ha): 4.0 | Postemergence herbicidal rating XANST ([21]; rate 0.016 kg/ha): 8.0 | Postemergence herbicidal rating XANST ([21]; rate 0.032 kg/ha): 9.0 | Postemergence herbicidal rating IPOHE ([22]; rate 0.016 kg/ha): 9.0 | Postemergence herbicidal rating IPOHE ([22]; rate 0.032 kg/ha): 9.0 | Postemergence herbicidal rating SETVI ([23]; rate 0.016 kg/ha): 5.0 | Postemergence herbicidal rating SETVI ([23]; rate 0.032 kg/ha): 6.0 | Postemergence herbicidal rating DIGSA ([24]; rate 0.016 kg/ha): 3.0 | Postemergence herbicidal rating DIGSA ([24]; rate 0.032 kg/ha): 4.0
